This is an account of results in US12605407B2, “Methods to induce terminal differentiation in stem cells by interfering with DNA replication, methods of inducing pancreatic differentiation, and differentiated cells obtained thereof” (priority 2018, dated 2026).

One data set deals with pancreatic progenitors. In words: Beta cell differentiation from human pluripotent stem cells, flow cytometry of C-peptide and NKX6.1 positive cells. The class given is cell-based. The procedure: Beta cells differentiated from human pluripotent stem cell lines as described in Example 2 (Sui et al., 2018b). Indicated compounds that function as cell cycle inhibitors were added individually from day 15 to day 27 with concentration listed below:
The DNA replication inhibitors used in this study: 0.1 μM, 0.5 μM and 1 μM Aphidicolin (A0781, Sigma-Aldrich); 2.5 μM Cisplatin (232120, EMD Millipore); 100 μM Ciprofloxacin (S2027, Selleck Chemicals); 10 μM Pyridostatin (S7444, Selleck Chemicals); 10 μM E2F Inhibitor (324461, EMD Millipore); 0.05 μM A485 (6387, Tocris); 2 μM RL5a (SML2187, Sigma-Aldrich); and 2 μM Etoposide (E55500, Research Products International). Indicated compounds were added individually from day 15 to day 27 with indicated concentration.
The beta cell clusters were dissociated using TrypLE™ Express into single cells. Cells were fixed with 4% PFA for 10 min and followed by permeabilization at −20° C. with cold methanol for 10 min. Primary antibodies were added at a dilution of 1:100 in autoMACs Rinsing Solution (Cat. No. 130-091-222, Miltenyi Biotec) containing 0.5% BSA at 4° C. for 1 hour. Secondary antibodies were added at a dilution of 1:500 at room temperature for 1 hour. The cells were filtered with BD Falcon 12×75 mm tube with cell strainer cap (Cat. No. 352235, BD) and subsequently analyzed by flow cytometer. Data were analyzed using Flowjo software. Negative controls were performed by only adding secondary antibodies.
Aphidicolin (APH), a DNA polymerase inhibitor, was used to inhibit DNA replication (Koundrioukoff et al., 2013). […] The insulin expressing cells were evenly distributed in the islet-like clusters with high percentage indicated by the expression of GFP, whereas some parts of the clusters in control remained GFP negative (FIG. 1D).
For orientation: Flow cytometry measures light scatter and fluorescence of single cells or particles in a stream.

A further data set has as its system NSG mice. The experiment in a line: Graft growth by luciferase reporter in vivo imaging, cyst formation and graft sections. How it is done: 8-10 weeks old male immuno-compromised mice (NOD.Cg-Prkdcscid Il2rgtm1Wj1/SzJ (NSG) from Jackson laboratories, Cat. No. 005557) were used for transplantation. For intra leg muscle transplantation, 1-2 million cells were collected and settled in tube with 50 μl Matrigel. All animal protocols were approved by the Institutional Animal Care and Use Committee in Columbia University.
A major obstacle for the therapeutic translation of stem cell products is the formation of growths, in the form of a teratoma or of a cyst. To determine growth potential of the grafted cells, growth was evaluated by monitoring the graft with a luciferase reporter using in vivo imaging. Mice were transplanted with 1-2 million APH treated cells or untreated cells. After 2 weeks of transplantation, the graft size of APH mice was small, while controls were modestly larger (FIG. 8A). […] The different growth trend of grafted cells between control and APH treated cells was evident in the bioluminescence intensity (FIG. 8C). At 22 weeks of engraftment, the size of graft in APH group was an average of 2.6-fold larger than that of 2 weeks compare to the control group which had 53.1-fold increase (FIG. 8D). Graft growth occurred in controls even in cultures with very high differentiation efficiency (greater than 60%). The increase of graft size was slower in the 3 mice transplanted with control cells with high differentiation efficiency but cystic structure still formed in three out of the three (3/3) mice (FIG. 8C, FIG. 8E).
The grafts were isolated from mice and frozen sectioned for examination. […] In control mice, the graft developed several large cystic structures and contained fewer C-peptide positive cells (FIG. 8G).

Where [1] appears, read: APH added d15-d20, d20-d27 or d15-d27, read at day 27, versus control.
The mark [2] stands for this setting: isolated grafts, frozen sections.

With `C[C@@]1(CO)[C@H](O)CC[C@@]2(C)[C@H]1CC[C@H]1C[C@@H]3C[C@@]12CC[C@]3(O)CO` [APH, Aphidicolin], the “variability of beta cell differentiation” value in the data set on pancreatic progenitors is “reduced”. Further, the “percentage of c-peptide and NKX6.1 positive cells, comparison of concentrations” value in the data set with pancreatic progenitors (1 μM, d15-d27, compared with 0.1 μM and 0.5 μM) is listed as “highest percentage”. Also, in the data set with pancreatic progenitors (setting [1]), the “proportion of C-peptide and NKX6.1 dual positive cells” value is “increased”; the “proportion of C-peptide positive cells” value is reported as “increased”. Further, in the data set with pancreatic progenitors (APH added from day 15 to day 27), the “differentiation toward C-peptide and NKX6.1 positive cells, comparison of treatment windows” value is “most effective”. Besides, the “C-peptide positive cells in cultures” value in the data set on pancreatic progenitors (all n=12 independent differentiation experiments) is reported as “more than 50%”. For the same molecule, the “effectiveness to induce differentiation of pancreatic progenitors to C-peptide positive cells, comparison within panel” value in the data set on pancreatic progenitors (day 27) is recorded as “most effective”. Further, in the data set on NSG mice (2 weeks of transplantation, 1-2 million APH treated cells), the graft size result is recorded as “small”. In addition, the “size of graft relative to 2 weeks, average (bioluminescence)” value with NSG mice (22 weeks of engraftment) stood at 2.6 fold. Further, in the data set with NSG mice (eleven weeks later (13 weeks post transplantation)), the “graft size relative to graft at 2 weeks” value is given as “remained the similar size”. The “cysts in mice grafted with APH treated cells” value in the data set with NSG mice (four out of the four (4/4) mice) is listed as “No cysts”. In the data set on NSG mice (setting [2]), the “MAFA staining of insulin expressing beta cells in graft” value is on record as “positive for MAFA” and the graft composition result is listed as “islet like structures”.
